Source: US20260158017A1, “KIF18A INHIBITOR” (WIGEN BIOMEDICINE TECHNOLOGY (SHANGHAI) CO., LTD., priority 2021, published 2026)

Columns and labels:
[1] = test system: Histone H3 Ser10 sites in HT29 cells; test: Phosphorylation assay of histone H3 Ser10 sites in HT29 cells (immunofluorescence assay); type: cell-based; conditions: Homo sapiens, HT-29, 6 h after addition, FITC/DAPI ratio
Procedure: Biological Example 5. Phosphorylation Assay of Histone H3 Ser10 Sites in HT29 Cells (Immunofluorescence Assay)
HT29 cells were seeded in a 96-well plate (Fisher 160376) at 8000 cells/well. The next day, the serially diluted compounds were added. 6 h after the addition of the compounds, the cells were washed once with 1×PBS, immobilized with 4% PFA for 15 min, further washed three times with 1×PBS, and permeabilized with 0.02% Triton-X100 for 10 min. A blocking buffer was then added for blocking for 15-30 min, and 1:3000-diluted primary antibodies (Phospho-Histone H3 (Ser10) (D7N8E) XP® Rabbit mAb #53348) were added. The plate was placed at 4° C. overnight. The next day, the cells were washed three times with 1×PBS, and 1:1000-diluted secondary antibodies (Fluorescein (FITC)-conjugated Affinipure Goat Anti-Rabbit IgG (H+L)) were added. The cells were incubated in the dark for 1-2 h and washed three times with 1×PBS. The nuclei were stained with DAPI, and after the staining was completed, photographs were taken using an MD ImageXpress Pico personal high-content imaging analysis system. The ratio of phosphorylation (FITC/DAPI) at H3 Ser10 sites in HT29 cells was quantified. To evaluate the effects of the compounds on the mitosis phase of HT29 cells, the EC50 values of the compounds were calculated.

HT-29 cells = test: In vitro anti-proliferative activity against HT-29 cells (intracellular ATP content, 72 h); type: cell-based; conditions: Homo sapiens, 72 h after dosing
Procedure: Biological Example 2. In Vitro Anti-Proliferative Activity of the Compounds of the Present Invention Against HT-29 Cells
(§1) HT-29 cells were seeded on a 384-well plate at 3000 cells/well. After overnight adherence culture, DMSO or the compounds serially 1:5-diluted from 5 μM were added. The viability of the cells was assessed 72 h after dosing by measuring the intracellular ATP content. The inhibition percentages of viable cells by the compounds were calculated by comparing with the DMSO group, and the IC50 values were also calculated.

[2] = test system: HT29 subcutaneous xenograft tumor; test: In vivo pharmacodynamic study, mouse HT29 subcutaneous xenograft tumor model; parameters: species or system BALB/c nude mice; conditions: for Tumor volume on day 1 of treatment / Tumor volume on day 28 of treatment / TGI (tumor growth inhibition): 80 mg/kg intragastric once daily; for Tumor volume on day 1 of treatment: baseline day 1; for TGI (tumor growth inhibition): day 28 vs day 1
Procedure: Biological Example 4. In Vivo Pharmacodynamic Study-Mouse HT29 Subcutaneous Xenograft Tumor Model
BALB/c nude mice were inoculated subcutaneously with 5×10^6 HT29 cells on the left dorsal side. After the tumors grew to 100-150 mm^3, the mice were randomly divided into the following groups for intragastric administration once daily: group 1: vehicle control group; group 2: compound 661 (80 mg/kg); group 3: compound 669 (80 mg/kg); group 4: compound 677 (80 mg/kg); group 5: compound 714 (80 mg/kg); group 6: compound 727 (80 mg/kg); group 7: compound 740 (80 mg/kg); and group 8: AMG650 (80 mg/kg). The tumor volume was measured twice weekly and at the end of treatment.

HCT116 cells = test: In vitro anti-proliferative activity against HCT116 cells (intracellular ATP content, 72 h); type: cell-based; conditions: for IC50: Homo sapiens, HCT-116, 72 h after dosing
Procedure: Biological Example 3. In Vitro Anti-Proliferative Activity of the Compounds of the Present Invention Against HCT116 Cells
as §1, with “HCT116” for “HT-29”, “IC 50” for “IC50”

[3] = molecular target: T1, Recombinant human KIF18A (1-467His-tagged) protein (Homo sapiens, UniProt Q8NI77); test: KIF18A enzyme assay (microtubule-stimulated ATPase activity, ADP-Glo); type: biochemical; conditions: 30 nM KIF18A, 75 μM ATP, 30 μg/mL pig microtubules; read-out: Inhibitory activity against KIF18A IC50
T1 construct: Recombinant human KIF18A (1-467His-tagged) protein; His; made in house
T1 sequence (Q8NI77 1-467): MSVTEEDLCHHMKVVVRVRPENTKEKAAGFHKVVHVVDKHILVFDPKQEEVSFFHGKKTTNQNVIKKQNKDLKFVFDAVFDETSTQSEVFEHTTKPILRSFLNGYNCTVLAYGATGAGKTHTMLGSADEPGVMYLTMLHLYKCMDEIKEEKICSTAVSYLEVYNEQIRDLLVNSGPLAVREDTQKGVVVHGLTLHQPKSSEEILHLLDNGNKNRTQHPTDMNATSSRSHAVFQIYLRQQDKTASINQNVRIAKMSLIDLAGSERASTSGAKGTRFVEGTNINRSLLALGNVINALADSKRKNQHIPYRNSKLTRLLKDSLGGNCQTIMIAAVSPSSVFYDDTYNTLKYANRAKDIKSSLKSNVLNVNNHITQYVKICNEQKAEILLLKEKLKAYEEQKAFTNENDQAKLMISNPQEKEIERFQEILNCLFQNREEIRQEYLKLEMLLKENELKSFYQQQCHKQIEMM
T1 sequence (P02550 whole entry partner): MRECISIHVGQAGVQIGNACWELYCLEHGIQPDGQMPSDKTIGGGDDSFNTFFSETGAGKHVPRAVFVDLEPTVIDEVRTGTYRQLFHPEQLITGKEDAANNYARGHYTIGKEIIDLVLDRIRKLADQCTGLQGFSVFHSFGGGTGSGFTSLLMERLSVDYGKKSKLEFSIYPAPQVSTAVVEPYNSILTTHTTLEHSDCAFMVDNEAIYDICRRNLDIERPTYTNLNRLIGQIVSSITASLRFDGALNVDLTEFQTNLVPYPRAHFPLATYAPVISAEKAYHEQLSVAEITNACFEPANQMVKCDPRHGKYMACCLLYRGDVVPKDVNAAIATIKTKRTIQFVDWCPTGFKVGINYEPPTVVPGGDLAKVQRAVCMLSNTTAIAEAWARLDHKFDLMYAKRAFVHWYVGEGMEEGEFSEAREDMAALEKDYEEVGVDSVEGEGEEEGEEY
T1 sequence (P02554 whole entry partner): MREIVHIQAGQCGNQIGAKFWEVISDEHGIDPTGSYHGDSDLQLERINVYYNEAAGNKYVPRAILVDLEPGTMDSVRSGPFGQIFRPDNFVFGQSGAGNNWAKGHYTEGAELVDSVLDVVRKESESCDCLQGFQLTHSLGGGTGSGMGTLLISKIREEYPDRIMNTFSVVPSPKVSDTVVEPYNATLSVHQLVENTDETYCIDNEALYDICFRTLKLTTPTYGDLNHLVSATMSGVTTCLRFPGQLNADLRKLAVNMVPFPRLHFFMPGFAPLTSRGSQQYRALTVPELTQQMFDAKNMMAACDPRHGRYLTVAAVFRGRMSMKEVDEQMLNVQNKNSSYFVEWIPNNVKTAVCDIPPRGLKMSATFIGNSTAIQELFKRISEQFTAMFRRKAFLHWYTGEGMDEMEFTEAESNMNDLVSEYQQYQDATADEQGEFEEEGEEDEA
Method in brief: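 Buffer 15 mM Tris pH 7.5, 10 mM MgCl2, 0.01% Pluronic F-68, 1 μM paclitaxel, 30 μg/mL pig microtubules; reactions at room temperature. IC50 from inhibition relative to DMSO.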

With `Cc1cc(NC(=O)c2ccc(NS(=O)(=O)CCO)cc2N2CCC3(CC2)CC3)nc(N2CCC(F)(F)CC2)n1` [AMG650, reference compound] the EC50 [1] was 52.3 nM, the IC50 (HT-29 cells) was 109 nM and the “Tumor volume on day 1 of treatment” value [2] was 121 mm^3. For the same molecule, the “Tumor volume on day 28 of treatment” value [2] was 649 mm^3, the “TGI (tumor growth inhibition)” value [2] was 64% and the “Anti-proliferative activity against HCT116 cells (in words)” value (HCT116 cells) was “neither the compounds of the present invention nor AMG650 have anti-proliferative activity”. It also gave an IC50 (HCT116 cells) of over 10000 nM.
`O=C(Nc1ccc(NS(=O)(=O)CCO)cc1N1CCC2(CC1)CC2)c1ccc([N+](=O)[O-])c(N2CCC(F)(F)CC2)n1` [Compound 161] showed an IC50 [3] of at most 100 nM, an EC50 [1] of 26.4 nM and an IC50 (HT-29 cells) of 66.1 nM. The IC50 (HCT116 cells) was over 10000 nM.
`COc1ccc(NC(=O)c2ccc(NS(=O)(=O)CCO)cc2N2CCC3(CC2)CC3)nc1N1CCC(F)(F)CC1` [Compound 257] gave an IC50 [3] of at most 100 nM, an EC50 [1] of 8.4 nM and an IC50 (HT-29 cells) of 11.1 nM. The IC50 (HCT116 cells) was over 10000 nM.
`COc1ccc(C(=O)Nc2ccc(NS(=O)(=O)CCO)cc2N2CCC3(CC2)CC3)nc1N1CCC(F)(F)CC1` [Compound 321] was tested, and the IC50 [3] was at most 100 nM, the EC50 [1] was 15.8 nM and the IC50 (HT-29 cells) was 59.3 nM. The IC50 (HCT116 cells) was over 10000 nM.
Molecule `COc1ccc(C(=O)Nc2cnc(NS(=O)(=O)CCO)cc2N2CCC3(CC2)CC3)nc1N1CCC(F)(F)CC1` [Compound 353] has an IC50 [3] of at most 100 nM, an EC50 [1] of 42.2 nM and an IC50 (HT-29 cells) of 74.6 nM. It also gave an IC50 (HCT116 cells) of over 10000 nM.
For `COc1ccc(NC(=O)c2ccc(NS(=O)(=O)CCOC(C)=O)cc2N2CCC3(CC2)CC3)nc1N1CCC(F)(F)CC1` [Compound 661], the EC50 [1] was 23.7 nM, the IC50 (HT-29 cells) was 25.8 nM and the “Tumor volume on day 1 of treatment” value [2] was 121 mm^3. For the same molecule, the “Tumor volume on day 28 of treatment” value [2] was 704 mm^3, the “TGI (tumor growth inhibition)” value [2] was 61% and the IC50 (HCT116 cells) was over 10000 nM.
For `COc1ccc(NC(=O)c2ccc(NS(=O)(=O)CCOC(=O)[C@@H](N)C(C)C)cc2N2CCC3(CC2)CC3)nc1N1CCC(F)(F)CC1` [Compound 714], the EC50 [1] was 39.2 nM, the “Tumor volume on day 1 of treatment” value [2] was 121 mm^3 and the “Tumor volume on day 28 of treatment” value [2] was 424 mm^3. For the same molecule, the “TGI (tumor growth inhibition)” value [2] was 80% and the “Inhibitory effect on HT29 mouse subcutaneous xenograft tumor (in words)” value ([2]; 80 mg/kg, comparison with AMG650) was “stronger inhibitory effects”.
